Entries after “also recorded” stand apart in the source; their conditions may differ. Like-named read-outs stand apart in the source and are kept apart here.
Tests used:
[1] = tested on: chronic tension-type headache; conditions: prophylactic; cited from earlier work
[2] = tested on: chronic tension-type headache; assay: Prophylactic treatment with reboxetine in patients with chronic tension-type headache (headache diary); type: in vivo, human
Description: Prophylactic treatment with reboxetine has been given to 10 patients with chronic tension-type headache treated at the outpatient headache clinic at the Department of Neurology, Glostrup Hospital, University of Copenhagen, Denmark. There were 5 women and 5 men with a mean age of 44 years. All patients had been suffering from chronic tension-type headache for several years, and had been treatment resistant to other headache prophylactics. Before treatment, the patents underwent a general and a neurological examination and completed a diagnostic headache diary during a four-week run-in period.
The patients filled in a headache diary before and during treatment recording headache characteristics, accompanying symptoms and intake of analgesics.
In total, 10 patents have been treated with reboxetne (as the methanesulphonate salt). […] The patents were instructed to take the tablet two to three hours before bedtime. Four patients stopped treatment within the first 4 weeks due to side effects. […] Efficacy was estimated to be very good in 66% of the patients that fulfilled the treatment series.

[3] = patients with chronic tension-type headache, 4 mg to 8 mg once daily, headache diary

| Structure (SMILES) | reduces headache [1] [%] | side effects [1] | Efficacy estimated to be very good, share of the patients that fulfilled the treatment series ([2]; 6 patients that completed the treatment series) [%] | side effects ([2]; 10 patients treated, 4 mg to 8 mg once daily) | reduction in consumption of analgesics [2, 3] [%] | reduction in intensity [2, 3] [%] | reduction of AUC (intensity×duration) [2, 3] [%] | Headache frequency reduced ([2]; patients with chronic tension-type headache, initial dose 4 mg once daily, final dose 8 mg once daily, headache diary before vs during treatment) [%] | patients that stopped treatment due to side effects ([2]; within the first 4 weeks, 10 patients treated) |
| --- | --- | --- | --- | --- | --- | --- | --- | --- | --- |
| CN(C)CCC=C1c2ccccc2CCc2ccccc21 [Amitriptyline] | 30 | many side effects, such as sedation and dryness of mouth |  |  |  |  |  |  |  |
| CCOc1ccccc1OC(c1ccccc1)C1CNCCO1 (stereo not drawn) [reboxetne, 2-[α-(2-ethoxy)-phenoxy-benzyl]morpholine] |  |  | 66 | Sleeping problems and dizziness were the most common side effect; also recorded: No serious side effects were reported | 55 | 78 | 47 | 10 | Four |
